Experimental data reported in patent publication US11407812B2, “Targeted expression of chloride channels and methods of use thereof” (GOLEINI INC., priority 2015, dated 2022).

Legend:
[1] = biological target: T1, GlyR α-subunit (hGlyRa1) (Homo sapiens, UniProt P23415); experiment: FLIPR membrane potential assay in HEK-293 cells expressing hGlyRa1; format: cell-based
T1 construct: P2A-mEYFP (C); host or cells: HEK-293
T1 sequence (P23415 29-457): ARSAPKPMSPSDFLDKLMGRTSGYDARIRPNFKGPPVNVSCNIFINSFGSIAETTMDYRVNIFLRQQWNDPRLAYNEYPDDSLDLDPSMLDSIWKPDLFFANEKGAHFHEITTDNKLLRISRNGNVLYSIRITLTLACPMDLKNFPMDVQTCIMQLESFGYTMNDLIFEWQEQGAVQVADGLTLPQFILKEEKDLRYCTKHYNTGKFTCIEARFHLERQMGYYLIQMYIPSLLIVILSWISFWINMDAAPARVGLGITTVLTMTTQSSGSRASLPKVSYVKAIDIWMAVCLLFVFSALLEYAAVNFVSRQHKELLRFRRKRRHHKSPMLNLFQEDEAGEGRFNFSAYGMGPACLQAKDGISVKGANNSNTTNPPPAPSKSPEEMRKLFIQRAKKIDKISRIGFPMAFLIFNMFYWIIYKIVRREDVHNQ
Protocol: For FlexStation assays, HEK-293 cells were plated at 20,000 cells/well, with a plating volume of 100 μl/well, in a black-sided/clear-bottomed 96-well imaging plate (BD Falcon #353219). For transfection, […] in 750 μl Opti-MEM (Gibco 31985-070) was mixed with 30 μl ExpressFect in 750 μl Opti-MEM, pre-incubated for 20 minutes, and then added at 15 μl/well to cells containing 100 μl fresh culture media. Cells were transfected 24 hours after plating and assayed 48 hours after transfection.
A fluorescence-based assay employing the FLIPR Membrane Potential Assay Kit, BLUE formulation, (Molecular Devices, #R8042) was used to detect voltage changes across the cell membrane. Dye loading buffer was prepared according to package literature. Specifically, the contents of one vial of BLUE reagent was dissolved with 5 ml of 1×Assay Buffer, followed by a wash of the vial with another 5 ml of 1× Assay Buffer, to yield a total volume of 10 ml of dye loading buffer. Unused portions of dye loading buffer were stored at −20° C. and used within 5 days. […] Cells were then loaded with 50 μl of Blue dye loading buffer and incubated for 40 min at 37° C./5% CO2. The signal was detected using the FlexStation 3 multimode benchtop microplate reader operated by SoftMax Pro Data Acquisition & Analysis Software (Molecular Devices). Excitation and emission wavelengths were set at 530 nm and 565 nm, respectively, with an emission cut-off of 550 nm. Plate reads were performed at 30° C. with a ‘Low PMT’ setting. […] Other FlexStation parameters included a pipette height of 130 an initial well volume of 100 μl, a transfer volume of 50 μl (therefore, drug concentrations were prepared 3×), and a transfer rate setting of 2, corresponding to ˜31 μl/sec.

[2] = tested on: GlyR; settings: read-out: EC50 for gating of GlyR; cited from earlier work
[3] = in vivo; cited from earlier work
[4] = tested on: SNI model of neuropathic pain in the rat; experiment: Spared nerve injury (SNI) model of neuropathic pain, von Frey withdrawal threshold (Example 5); format: in vivo; settings: for withdrawal threshold / reduction of the allodynic response: Control vector animals
Text: Under isoflurane anesthesia the skin on the lateral surface of the thigh was incised and a section made directly through the biceps femoris muscle exposing the sciatic nerve and its three terminal branches: the sural, common peroneal and tibial nerves. The SNI procedure comprised an axotomy and ligation of the tibial and common peroneal nerves leaving the sural nerve intact. The common peroneal and the tibial nerves were tight-ligated with 5.0 silk and sectioned distal to the ligation, removing 2±4 mm of the distal nerve stump. Great care was taken to avoid any contact with or stretching of the intact sural nerve. Muscle and skin were closed in two layers (Decosterd I. and Woolf C. (2000) Pain 87(2):149-158). In the current study this was considered as Day 0.
Testing was performed during the day portion of the circadian cycle only (06:00-18:00 h). Rats were placed in an inverted plastic cage on an elevated wire mesh platform which allowed full access to the paws. Behavioral accommodation was allowed for approximately 15 min, until cage exploration and major grooming activities ceased. The area tested was the lateral region of the plantar left hind paw, in the sural nerve distribution, avoiding the less sensitive tori (footpads). The paw was touched with 1 of a series of 8 von Frey filaments with logarithmically incremental stiffness (0.41, 0.70, 1.20, 2.00, 3.63, 5.50, 8.50, and 15.10 g) (Stoelting). The von Frey filament was presented perpendicular to the plantar surface with sufficient force to cause slight buckling against the paw, and held for approximately 6-8 s. Stimuli were presented at intervals of several seconds, allowing for apparent resolution of any behavioral responses to previous stimuli. A positive response was noted if the paw was sharply withdrawn. Flinching immediately upon removal of the hair was also considered a positive response. Ambulation was considered an ambiguous response, and in such cases the stimulus was repeated. Based on observations on normal, un-operated rats, the cut-off of a 15.10 g filament (˜10% of the body weight of the smaller rats) was selected as the upper limit for testing, since stiffer filaments tended to raise the entire limb rather than to buckle, substantially changing the nature of the stimulus (Chaplan S. et al. (1994) J Neurosci Methods 53(1): 55-63).
One day prior to the surgery (Day −1) animals were tested for their baseline response to mechanical stimulation (mechanical sensitivity). At 10 days post-surgery all animals were re-tested for their mechanical sensitivity.
At days 13, 22 and 35 post-treatment (days 23, 32 and 45 post-surgery) animals were re-evaluated for their mechanical sensitivity. For all of these measurements the operator was blinded as to the identity of the animals.
At day 36 post-treatment (day 46 post-surgery) the animals were dosed with gabapentin (100 mg/kg: IP). At 1 hour and 2 hours post-gabapentin administration the animals were evaluated for their sensitivity to mechanical stimulation.
The 50% withdrawal threshold was determined using the up-down method of Dixon (Chaplan S. et al. (1994) J Neurosci Methods 53(1):55-63; Dixon W J. (1980) Ann. Rev. Pharmacol. Toxicol. 20:441-462). In this paradigm, testing was initiated with the 2.0 g filament, in the middle of the series. Stimuli were always presented in a consecutive fashion, whether ascending or descending. In the absence of a paw withdrawal response to the initially selected filament, a stronger stimulus was presented; in the event of paw withdrawal, the next weaker stimulus was chosen. According to Dixon, optimal threshold calculation by this method requires 6 responses in the immediate vicinity of the 50% threshold. Since the threshold is not known, strings of similar responses may be generated as the threshold is approached from either direction.

[5] = tested on: wild-type α-subunit of the GluCl glutamate receptor; experiment: FLIPR membrane potential assay in HEK-293 cells expressing wild-type GluCl α-subunit; format: cell-based, Caenorhabditis elegans
Protocol: Cells were transfected 24 hours after plating and assayed 48 hours after transfection.
A fluorescence-based assay employing the FLIPR Membrane Potential Assay Kit, BLUE formulation, (Molecular Devices, #R8042) was used to detect voltage changes across the cell membrane. Dye loading buffer was prepared according to package literature. Specifically, the contents of one vial of BLUE reagent was dissolved with 5 ml of 1× Assay Buffer, followed by a wash of the vial with another 5 ml of 1× Assay Buffer, to yield a total volume of 10 ml of dye loading buffer. Unused portions of dye loading buffer were stored at −20° C. and used within 5 days. For the functional assay, culture medium was removed from the cells and replaced with 50 DMEM. Cells were then loaded with 50 μl of Blue dye loading buffer and incubated for 40 min at 37° C./5% CO2. The signal was detected using the FlexStation 3 multimode benchtop microplate reader operated by SoftMax Pro Data Acquisition & Analysis Software (Molecular Devices). Excitation and emission wavelengths were set at 530 nm and 565 nm, respectively, with an emission cut-off of 550 nm. Plate reads were performed at 30° C. with a ‘Low PMT’ setting. Run times, of which the first 20 s measured basal fluorescence, were 300 s for ivermectin-induced signals. […]

[6] = biological target: T2, L9′A mutated GluCl α-subunit (GluCl*) (Caenorhabditis elegans, UniProt G5EBR3, L315A); format: cell-based; settings: increasing doses of ivermectin, cells expressing GluCl*
T2 construct: expressed in transfected cells; host or cells: HEK-293
T2 sequence (G5EBR3 21-461 L315A): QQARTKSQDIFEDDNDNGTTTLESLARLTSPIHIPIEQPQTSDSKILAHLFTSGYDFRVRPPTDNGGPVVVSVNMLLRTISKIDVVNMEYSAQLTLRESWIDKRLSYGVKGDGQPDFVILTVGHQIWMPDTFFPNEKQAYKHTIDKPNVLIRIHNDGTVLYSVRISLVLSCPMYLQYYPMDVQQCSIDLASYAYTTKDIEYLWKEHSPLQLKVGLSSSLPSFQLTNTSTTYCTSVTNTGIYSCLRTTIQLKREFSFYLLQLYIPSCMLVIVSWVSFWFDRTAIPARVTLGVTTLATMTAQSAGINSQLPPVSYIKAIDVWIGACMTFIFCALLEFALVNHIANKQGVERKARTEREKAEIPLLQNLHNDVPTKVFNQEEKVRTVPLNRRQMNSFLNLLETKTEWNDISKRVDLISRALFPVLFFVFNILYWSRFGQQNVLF

[7] = tested on: HEK-293 cells; format: cell-based, human; settings: 48 hours post-transfection
Protocol: […]. […] […]. […] Five separate wells were evaluated for each condition (un-transfected, mock-transfected, GluCl and GluCl*).

[8] = tested on: Human airway smooth muscle (HASM) cells; experiment: Histamine-induced increase in intracellular Ca++ (Fluo 8); format: cell-based
Protocol: Human airway smooth muscle (HASM) cells were derived from tracheas obtained from the National Disease Research Interchange (Philadelphia, Pa., USA) and from the International Institute for the Advancement of Medicine (Edison, N.J., USA). The cells were cultured in Ham's F-12 medium supplemented with 10% FBS, 100 U mL^−1 penicillin, 0.1 mg mL^−1 streptomycin and 2.5 mg mL^−1 amphotericin B, and this medium was replaced every 72 h. HASM cells in subculture during passages 1-5 were used, because these cells retain the expression of native contractile protein. The HASM cells were derived from healthy normal donors.
Cells were serum starved for 24 hr and loaded with Fluo 8 calcium sensing dye for 1 hr prior to stimulation with histamine. […] All data from both studies is expressed as relative fluorescent units.

In the case of `NCC(=O)O` [Glycine], the “EC100 of change in membrane potential” value ([1]; HEK-293 cells expressing hGlyRa1) is given as “approximately 300 μM”, the EC50 [2] is given as roughly 100 µM and the “half-life in the body” value [3] is given as 26 to 245 min.

For `NCCS(=O)(=O)O` [Taurine], the “effect on membrane potential” value ([1]; taurine 1 μM to 1 mM, monomeric hGlyRa1 channel) was “no direct effect”.

In the case of `NCC1(CC(=O)O)CCCCC1` [Gabapentin], the withdrawal threshold ([4]; 1 hour post dose, 100 mg/kg IP) is reported as 3.44 ± 0.36 g, the “reduction of the allodynic response” value ([4]; 1 hour post-dose, 100 mg/kg IP) is reported as 25% and the withdrawal threshold ([4]; 2 hours post dose, 100 mg/kg IP) is reported as 4.15 ± 0.19 g. The “reduction of the allodynic response” value ([4]; 2 hours post-dose, 100 mg/kg IP) was 44%, the withdrawal threshold ([4]; pre-dose, day 46 post-surgery) was 2.46 ± 0.49 g and the “effect on response to mechanical stimulation in animals previously treated with GTX-01*” value ([4]; rat, in vivo) was “no effect”.

In the case of Ivermectin, the EC50 ([5]; HEK-293 cells expressing wild-type GluCl α-subunit alone, 4.5 minutes post addition, read-out: EC50 of change in membrane potential) is reported as 0.147 µM and the “effect of ivermectin on change in membrane potential” value [6] is reported as “did not augment the change in membrane potential”.

B1: wild-type GluCl α-subunit: fluorescently tagged Caenorhabditis elegans GluCl α-subunit, wild type, expressed from plasmid (protein, UniProt G5EBR3 21-461, looked up)
Glutamate-gated chloride …: QQARTKSQDIFEDDNDNGTTTLESLARLTSPIHIPIEQPQTSDSKILAHLFTSGYDFRVRPPTDNGGPVVVSVNMLLRTISKIDVVNMEYSAQLTLRESWIDKRLSYGVKGDGQPDFVILTVGHQIWMPDTFFPNEKQAYKHTIDKPNVLIRIHNDGTVLYSVRISLVLSCPMYLQYYPMDVQQCSIDLASYAYTTKDIEYLWKEHSPLQLKVGLSSSLPSFQLTNTSTTYCTSVTNTGIYSCLRTTIQLKREFSFYLLQLYIPSCMLVIVSWVSFWFDRTAIPARVTLGVTTLLTMTAQSAGINSQLPPVSYIKAIDVWIGACMTFIFCALLEFALVNHIANKQGVERKARTEREKAEIPLLQNLHNDVPTKVFNQEEKVRTVPLNRRQMNSFLNLLETKTEWNDISKRVDLISRALFPVLFFVFNILYWSRFGQQNVLF
With B1 the “unstimulated change in membrane potential” value ([5]; no agonist, monomeric expression in HEK-293) was “no unstimulated change in membrane potential” and the cell viability [7] was 91.8%.

B2: hGlyRa1 (protein, listed as Homo sapiens)
chain: MYSFNTLRLYLWETIVFFSLAASKEAEAARSAPKPMSPSDFLDKLMGRTSGYDARIRPNFKGPPVNVSCNIFINSFGSIAETTMDYRVNIFLRQQWNDPRLAYNEYPDDSLDLDPSMLDSIWKPDLFFANEKGAHFHEITTDNKLLRISRNGNVLYSIRITLTLACPMDLKNFPMDVQTCIMQLESFGYTMNDLIFEWQEQGAVQVADGLTLPQFILKEEKDLRYCTKHYNTGKFTCIEARFHLERQMGYYLIQMYIPSLLIVILSWISFWINMDAAPARVGLGITTVLTMTTQSSGSRASLPKVSYVKAIDIWMAVCLLFVFSALLEYAAVNFVSRQHKELLRFRRKRRHHKSPMLNLFQEDEAGEGRFNFSAYGMGPACLQAKDGISVKGANNSNTTNPPPAPSKSPEEMRKLFIQRAKKIDKISRIGFPMAFLIFNMFYWIIYKIVRREDVHNQ
For B2, the “unstimulated change in membrane potential” value [1] was “no unstimulated change in membrane potential” and the “effect on histamine-induced increase in intracellular Ca” value [8] was “antagonized”.
